Test results published in ChEMBL document CHEMBL1201862, “PubChem BioAssay data set” (2004).
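Values below derive from 48-hour exposures of cells grown in 96-well plates, with endpoints linearly interpolated between the two concentrations bracketing the appropriate inhibition level. GI50: concentration for 50% inhibition of growth.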 The source made the active and inactive calls. Rule as the data show it: active = GI50 up to about 1.1 µM and inactive = higher.

How the values were obtained:
Assay in all cases: NCI-60 cell line screen, 48 h
MDA-MB-231 = tested on: MDA-MB-231
UACC-62 = tested on: UACC-62
NCI/ADR-RES = tested on: NCI/ADR-RES
UACC-257 = tested on: UACC-257
RPMI-8226 = tested on: RPMI-8226
HCT-116 = tested on: HCT-116
SN12C = tested on: SN12C
SNB-19 = tested on: SNB-19
SR = tested on: SR
UO-31 = tested on: UO-31
DU-145 = tested on: DU-145
OVCAR-8 = tested on: OVCAR-8
IGROV-1 = tested on: IGROV-1
MCF7 = tested on: MCF7
SK-MEL-5 = tested on: SK-MEL-5
NCI-H460 = tested on: NCI-H460
RXF 393 = tested on: RXF 393
CAKI-1 = tested on: CAKI-1
SF-539 = tested on: SF-539
NCI-H522 = tested on: NCI-H522

SMILES | GI50 (MDA-MB-231) | GI50 (UACC-62) | GI50 (NCI/ADR-RES) | GI50 (UACC-257) | GI50 (RPMI-8226) | GI50 (HCT-116) | GI50 (SN12C) | GI50 (SNB-19) | GI50 (SR) | GI50 (UO-31) | GI50 (DU-145) | GI50 (OVCAR-8) | GI50 (IGROV-1) | GI50 (MCF7) | GI50 (SK-MEL-5) | GI50 (NCI-H460) | GI50 (RXF 393) | GI50 (CAKI-1) | GI50 (SF-539) | GI50 (NCI-H522)
CC(C)CC1[C@@H](OCc2ccccc2)COS(=O)N1Cc1ccccc1 (stereo not given in full) | 20.7 µM (inactive) | 60 µM (inactive) | 49.4 µM (inactive) | 30.7 µM (inactive) | 20.8 µM (inactive) | 28.2 µM (inactive) | 57.8 µM (inactive) | 41.7 µM (inactive) | 19.9 µM (inactive) | 34.6 µM (inactive) | 35.6 µM (inactive) | 39 µM (inactive) | 31 µM (inactive) | 41.9 µM (inactive) | 33.5 µM (inactive) | – | – | – | – | –
Cc1cc(C)c2c(O)c(S(=O)(=O)c3ccc(Cl)cc3)c(=O)oc2c1 | 78.7 µM (inactive) | 58.6 µM (inactive) | 26.2 µM (inactive) | > 100 µM (inactive) | 60.1 µM (inactive) | 53.5 µM (inactive) | 65.3 µM (inactive) | 52.1 µM (inactive) | 82.4 µM (inactive) | 50.8 µM (inactive) | 84.9 µM (inactive) | 29.2 µM (inactive) | 31.7 µM (inactive) | 50.6 µM (inactive) | 60 µM (inactive) | 52.2 µM (inactive) | > 100 µM (inactive) | 72.6 µM (inactive) | > 100 µM (inactive) | –
CC1CN=C(N(C)C(=O)Nc2ccc(Cl)c(Cl)c2)S1 (stereo not given) | 28.1 µM (inactive) | – | 14.4 µM (inactive) | 26.9 µM (inactive) | 31.7 µM (inactive) | 39 µM (inactive) | 26.5 µM (inactive) | 80 µM (inactive) | 29.2 µM (inactive) | 29.5 µM (inactive) | 44.8 µM (inactive) | 27.2 µM (inactive) | 27.2 µM (inactive) | 19.3 µM (inactive) | 15.7 µM (inactive) | 36 µM (inactive) | – | 7.53 µM (inactive) | 17.7 µM (inactive) | –
CNC(=O)CC1NC(=O)c2csc(n2)-c2ccc(-c3nc(C4=NC(C(=O)N5CCCC5C(N)=O)CO4)cs3)nc2-c2csc(n2)-c2csc(n2)C(C(C)C)NC(=O)CNC(=O)c2csc(n2)C(C(C)C)NC(=O)c2nc1sc2C (stereo not given) | 0.0153 µM (active) | 0.00438 µM (active) | 6.05 µM (inactive) | 0.02 µM (active) | > 25 µM (inactive) | 0.00114 µM (active) | 0.00398 µM (active) | 0.043 µM (active) | > 25 µM (inactive) | 2.18 µM (inactive) | 0.0038 µM (active) | 0.00485 µM (active) | 0.00175 µM (active) | > 25 µM (inactive) | 0.00289 µM (active) | 0.00194 µM (active) | 0.00386 µM (active) | 0.436 µM (active) | 0.00113 µM (active) | –
CCN(CC)CCNc1nc(N)c(C#N)c(C#N)c1C#N | > 10 µM (inactive) | > 10 µM (inactive) | > 10 µM (inactive) | > 10 µM (inactive) | > 10 µM (inactive) | > 10 µM (inactive) | > 10 µM (inactive) | > 10 µM (inactive) | – | > 10 µM (inactive) | > 10 µM (inactive) | > 10 µM (inactive) | > 10 µM (inactive) | > 10 µM (inactive) | > 10 µM (inactive) | > 10 µM (inactive) | > 10 µM (inactive) | > 10 µM (inactive) | > 10 µM (inactive) | > 10 µM (inactive)
NC(=S)Nc1nc(=S)[nH]c2[nH]ccc12 | > 100 µM (inactive) | 91 µM (inactive) | > 100 µM (inactive) | > 100 µM (inactive) | 25.9 µM (inactive) | 90.8 µM (inactive) | > 100 µM (inactive) | > 100 µM (inactive) | 29.4 µM (inactive) | 66.7 µM (inactive) | > 100 µM (inactive) | 49.3 µM (inactive) | 88.5 µM (inactive) | 91.2 µM (inactive) | 15.3 µM (inactive) | > 100 µM (inactive) | – | > 100 µM (inactive) | > 100 µM (inactive) | –
CC(=O)NC1C(OCc2ccccc2)OC(CO)C(O)C1OCC(=O)NC(C)C(=O)NC(CCC(=O)NCCCCCC(=O)Nc1ccc2c(c1)CN1C(=O)c3ccccc3C1=N2)C(N)=O (stereo not given) | > 100 µM (inactive) | 57.3 µM (inactive) | > 100 µM (inactive) | > 100 µM (inactive) | 38 µM (inactive) | 39.6 µM (inactive) | 69.8 µM (inactive) | 63.1 µM (inactive) | 17.4 µM (inactive) | > 100 µM (inactive) | > 100 µM (inactive) | 49.5 µM (inactive) | > 100 µM (inactive) | 35.6 µM (inactive) | 75 µM (inactive) | 43.1 µM (inactive) | > 100 µM (inactive) | > 100 µM (inactive) | > 100 µM (inactive) | –
COC(=O)Nc1nc2cc(NC(=O)c3ccc(I)cc3)ccc2[nH]1 | > 100 µM (inactive) | > 100 µM (inactive) | > 100 µM (inactive) | > 100 µM (inactive) | > 100 µM (inactive) | > 100 µM (inactive) | > 100 µM (inactive) | > 100 µM (inactive) | – | > 100 µM (inactive) | > 100 µM (inactive) | > 100 µM (inactive) | > 100 µM (inactive) | > 100 µM (inactive) | > 100 µM (inactive) | > 100 µM (inactive) | > 100 µM (inactive) | > 100 µM (inactive) | > 100 µM (inactive) | 24.7 µM (inactive)
